Legend:
[1] = tested on: prostate specific antigen (PSA) as a target protein of androgen receptor; test: Western blot of PSA expression in LNCaP cells (FIG. 1); assay type: cell-based; settings: LNCaP androgen-dependent human prostate cancer cell line; compared with bicalutamide
[2] = tested on: androgen receptor (AR) target gene; test: RT-PCR of androgen receptor target gene mRNA (FIG. 2); assay type: cell-based
A549 lung carcinoma cell = test: Cell viability, CCK-8 assay, A549; assay type: cell-based; settings: Homo sapiens; A549 cells, 72 hr treatment; read-out: IC50 (after 72 hr treatment) A549
Description: (§1) The human cancer cell line (A549 lung carcinoma cell, Hela adenocarcinoma cell, U266 myeloma cell) was obtained from American Type Culture Collection (Manassas, Va. USA) and maintained in complete medium [RPMI. 1640 supplemented with heat-inactivated 10% FBS (USP, Austin, Tex., USA) and with 1% antibiotic-antimycotic solution (USP, Austin, Tex., USA)]. The cells were maintained in a humidified atmosphere of 5% CO2 and 95% air at 37° C., and cultured in T75 Flask (Nalge Nune International, Naperville, Ind., USA).
(§2) Cell viability was measured by a cell counting kit (CCK-8 assay, Dojindo, Tokyo, Japan), and the experimental procedure is based on the manufacturer's manual. The cells were cultured into 96-well plates at a density of 2×10^4 cells/well for 24 hours, followed by the treatment of the compounds of the present invention at various concentrations. […] Louis, Mo., USA)) was added to each well, and plates were incubated for additional 2 hours at 37° C. The absorbance of each well at 450 nm was measured with a reference at 630 nm using a Bio-Tek model ELx800™ microplate reader (Bio-Tek Instruments, Inc., Winooski, Vt., USA). The percentage of cell viability was calculated by following Mathematical Equation 1. […]

Hela adenocarcinoma cell = test: Cell viability, CCK-8 assay, Hela; assay type: cell-based; settings: Homo sapiens; Hela cells, 72 hr treatment; read-out: IC50 (after 72 hr treatment) Hela
Description: as §1, §2

U266 myeloma cell = test: Cell viability, CCK-8 assay, U266; assay type: cell-based; settings: Homo sapiens, U-266; U266 cells, 72 hr treatment; read-out: IC50 (after 72 hr treatment) U266
Description: as §1, §2

[3] = biological target: T1, RAR-related orphan receptor α (RORα) (Homo sapiens, UniProt P35398); test: Agonistic effect on RORα
T1 sequence (P35398 1-523): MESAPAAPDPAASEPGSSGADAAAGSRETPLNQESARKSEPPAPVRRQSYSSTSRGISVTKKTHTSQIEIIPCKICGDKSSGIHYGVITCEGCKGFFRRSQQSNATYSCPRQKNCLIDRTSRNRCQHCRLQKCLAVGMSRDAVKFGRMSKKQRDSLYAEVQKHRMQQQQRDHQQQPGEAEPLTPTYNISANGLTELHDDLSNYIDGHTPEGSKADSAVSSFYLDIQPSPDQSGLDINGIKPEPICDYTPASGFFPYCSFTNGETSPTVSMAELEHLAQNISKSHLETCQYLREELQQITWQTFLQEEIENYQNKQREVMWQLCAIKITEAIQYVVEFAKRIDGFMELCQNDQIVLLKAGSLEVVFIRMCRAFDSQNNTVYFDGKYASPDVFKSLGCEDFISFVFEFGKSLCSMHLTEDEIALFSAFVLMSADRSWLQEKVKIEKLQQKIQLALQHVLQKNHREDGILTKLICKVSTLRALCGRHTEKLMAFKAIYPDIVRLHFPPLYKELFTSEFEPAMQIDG

Structure (SMILES) | anticancer activity based on the expression amount of PSA (western blot) [1] | mRNA amount of NK3 transcription factor related, locus 1 (NKX3-1) [2] | mRNA amount of kallikrein-related peptidase 2 (KLK2) [2] | mRNA amount of prostate specific antigen (PSA) [2] | IC50 (A549 lung carcinoma cell) [nM] | IC50 (Hela adenocarcinoma cell) [nM] | IC50 (U266 myeloma cell) [nM] | agonistic effect of activating RORα [3]
O=C1C2C3=C(c4ccc(O)cc4OC34CCCC4)[C@@H](O)[C@H](c3ccccc3)C2C(=O)N1Cc1ccccc1 (some centres unmarked) [Compound 96] | almost analogous to that of bicalutamide | decreasing | decreasing | decreasing |  |  |  | 
COc1ccc2c(c1O)OC(C)(C)C=C2c1ccc(Cl)cc1C [Compound 95] |  |  |  |  | 380 | 450 | 460 | agonistic effect

Source: patent US9120814B2, “Compounds with embedded benzopyran motif for core structures and preparation method thereof” (SNU R&DB FOUNDATION, priority 2006, dated 2015)
